Laboratory results from publication doi:10.1101/2021.02.13.431008v1 (biorxiv, 2021).

Columns and labels:
[1] = molecular target: T1, SARS-CoV-2 PLpro (papain-like protease) (Severe acute respiratory syndrome coronavirus 2, UniProt P0DTD1); details: binder
[2] = molecular target: T1, SARS-CoV-2 PLpro (papain-like protease); assay: biochemical

Cc1ccc(NC2CNC2)cc1C(=O)N[C@H](C)c1cccc(-c2ccc(CNC3CCCC3)s2)c1 [XR8-23]
Ave kd [1]: 0.124 s⁻¹

Cc1ccc(NC2CNC2)cc1C(=O)N[C@H](C)c1cccc2ccccc12 [ZN2-184]
Ave kd [1]: 0.349 s⁻¹

Cc1ccc(NC2CNC2)cc1C(=O)N[C@H](C)c1cccc(-c2cccs2)c1 [ZN3-80]
Ave kd [1]: 0.327 s⁻¹

CC(C)c1cc(C(C)C)c(CC(=O)NS(=O)(=O)Oc2c(C(C)C)cccc2C(C)C)c(C(C)C)c1 [avasimibe]
IC50 [2]: > 20 µM

CCOc1nc2cccc(C(=O)O)c2n1Cc1ccc(-c2ccccc2-c2nnn[nH]2)cc1 [candesartan]
IC50 [2]: > 20 µM
